Laboratory results published in the NIST ThermoML archive (doi:10.1016/j.jct.2015.01.006).
Numbers after ± are expanded uncertainties.

Assay: mn = molality of the nth substance listed, in mol/kg
Conditions: 298.15 K, 100 kPa, Liquid, Vibrating tube method

[O]=[Re](=[O])(=[O])[OH] [perrhenic acid] + O
Conditions	mass density [kg/m3]
m1 = 0.15	1027.57 ± 4.1
m1 = 0.31	1057.54 ± 4.2
m1 = 0.46	1087.27 ± 4.4
m1 = 0.6	1115.28 ± 4.5
m1 = 0.75	1143.92 ± 4.6
m1 = 0.89	1169.78 ± 4.7
m1 = 1.03	1195.77 ± 4.8
m1 = 1.17	1220.36 ± 4.9
m1 = 1.31	1245.59 ± 5
m1 = 1.45	1270.29 ± 5.1
m1 = 1.58	1292.96 ± 5.2
m1 = 1.71	1316 ± 5.3
m1 = 1.93	1361.24 ± 5.5
m1 = 2.38	1429.34 ± 5.8
m1 = 3.33	1584.96 ± 6.5
m1 = 3.78	1649.71 ± 6.8
m1 = 4.08	1693.28 ± 6.9
m1 = 4.29	1716.22 ± 7
m1 = 4.63	1782.41 ± 7.3
m1 = 4.72	1791.73 ± 7.4
m1 = 4.96	1821.44 ± 7.5
m1 = 5.23	1856.73 ± 7.7
m1 = 5.45	1877.16 ± 7.8
m1 = 5.66	1910.98 ± 8
m1 = 5.92	1933.4 ± 8.1
m1 = 6.06	1957.44 ± 8.2
m1 = 6.26	1978.54 ± 8.3
m1 = 6.5	2025.89 ± 8.5
m1 = 6.8	2054.75 ± 8.7
m1 = 7.05	2069.04 ± 8.7
m1 = 7.13	2085.82 ± 8.8
m1 = 7.42	2107.74 ± 8.9
m1 = 7.44	2117.26 ± 9
m1 = 7.65	2134.62 ± 9.1
m1 = 7.86	2153.7 ± 9.2
m1 = 7.95	2166.62 ± 9.3
m1 = 8.2	2192.45 ± 9.4
m1 = 11.82	2516.75 ± 11
